Molecular target: human STING WT (6His-tagged STING protein) (Homo sapiens (Human), UniProt Q86WV6)
Assay: HTRF binding assay (STING binding assay)
Conditions: inhibition of d2-labeled 2',3'-cGAMP binding to 6His-tagged STING
Procedure: Example 202 HTRF Binding Assay
Asymmetric bis-benzimidazole compounds (BBI) of the invention were assessed in a biochemical homogeneous time resolved fluorescence (HTRF) binding assay adapted from the human STING WT binding assay (“HTRF, A guide to Homogeneous Time Resolved Fluorescence”, (2021) PerkinElmer Cisbio; Mathis, G. Clinical Chemistry, 41(9):1391-1397). Briefly, 6His-tagged STING protein was incubated with terbium cryptate-labeled anti-6His antibody, d2-labeled 2′,3′-cGAMP, and varying concentrations of test articles in a 384-well plate format. Donor and acceptor emission signals were measured for each well by plate reader at […], respectively, and the ratio of the signals used to calculate percent inhibition of d2-labeled 2′,3′-cGAMP, cyclic dinucleotide binding.

Sequence of human STING WT (6His-tagged STING protein) (Q86WV6 whole entry): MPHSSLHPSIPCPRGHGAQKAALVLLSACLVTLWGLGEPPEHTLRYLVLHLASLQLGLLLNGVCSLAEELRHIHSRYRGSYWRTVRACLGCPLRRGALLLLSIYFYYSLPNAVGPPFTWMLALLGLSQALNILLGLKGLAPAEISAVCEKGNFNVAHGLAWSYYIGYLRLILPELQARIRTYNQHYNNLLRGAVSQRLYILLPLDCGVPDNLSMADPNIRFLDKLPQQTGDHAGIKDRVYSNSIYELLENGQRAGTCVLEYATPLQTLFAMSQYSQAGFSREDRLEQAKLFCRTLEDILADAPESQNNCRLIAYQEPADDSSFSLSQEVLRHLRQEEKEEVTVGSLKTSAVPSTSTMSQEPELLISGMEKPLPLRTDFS

IC50 | Structure (SMILES)
57 nM | CCn1nc(C)cc1C(=O)Nc1nc2cc(C(N)=O)cc(OCCCn3c(NC(=O)c4cc(C)nn4CC)nc4cc(C(N)=O)cc(OC)c43)c2n1C [BBI-1, 1-(3-((5-carbamoyl-2-(1-ethyl-3-methyl-1H-pyrazole-5-carboxamido)-1-methyl-1H-benzo[d]imidazol-7-yl)oxy)propyl)-2-(1-ethyl-3-methyl-1H-pyrazole-5-carboxamido)-7-methoxy-1H-benzo[d]imidazole-5-carboxamide]
73 nM | CCn1nc(C)cc1C(=O)Nc1nc2cc(C(N)=O)cc(OCCCCn3c(NC(=O)c4cc(C)nn4CC)nc4cc(C(N)=O)cc(OC)c43)c2n1C [BBI-2, 1-[4-[6-carbamoyl-2-[(2-ethyl-5-methyl-pyrazole-3-carbonyl)amino]-3-methyl-benzimidazol-4-yl]oxybutyl]-2-[(2-ethyl-5-methyl-pyrazole-3-carbonyl)amino]-7-methoxy-benzimidazole-5-carboxamide]
250 nM | CCn1nc(C)cc1C(=O)Nc1nc2cc(C(N)=O)cc(OCCCCn3c(NC(=O)c4cc(C)nn4CC)nc4cc(C(N)=O)cc(OCCCN5CCNCC5)c43)c2n1C [BBI-3, 1-(4-((5-carbamoyl-2-(1-ethyl-3-methyl-1H-pyrazole-5-carboxamido)-1-methyl-1H-benzo[d]imidazol-7-yl)oxy)butyl)-2-(1-ethyl-3-methyl-1H-pyrazole-5-carboxamido)-7-(3-(piperazin-1-yl)propoxy)-1H-benzo[d]imidazole-5-carboxamide]
440 nM | CCn1nc(C)cc1C(=O)Nc1nc2cc(C(N)=O)cc(OCCCn3c(NC(=O)c4cc(C)nn4CC)nc4cc(C(N)=O)ccc43)c2n1C [BBI-4]
210 nM | CCn1nc(C)cc1C(=O)Nc1nc2cc(C(N)=O)cc(OCCn3c(NC(=O)c4cc(C)nn4CC)nc4cc(C(N)=O)cc(OC)c43)c2n1C [BBI-5]
51 nM | CCn1nc(C)cc1C(=O)Nc1nc2cc(C(N)=O)cc(OCCCn3c(NC(=O)c4cc(C)nn4CC)nc4cc(C(N)=O)cc(OCCCN5CCNCC5)c43)c2n1C [BBI-6]
150 nM | CCn1nc(C)cc1C(=O)Nc1nc2cc(C(N)=O)cc(OC/C=C/Cn3c(NC(=O)c4cc(C)nn4CC)nc4cc(C(N)=O)cc(OCCCN5CCNCC5)c43)c2n1C [BBI-7]

— patent publication US20240417486A1, “ASYMMETRIC BIS-BENZIMIDAZOLE STING AGONIST IMMUNOCONJUGATES AND USES THEREOF” (BOLT BIOTHERAPEUTICS, INC., priority 2021, published 2024)
